Reference: the NIST ThermoML archive (doi:10.1021/acs.jced.5b00820)
Where “and” joins values, the source holds several entries; their conditions need not be identical. Identical values can stand only once. Numbers after ± are expanded uncertainties.

Columns and labels:
[1] = refractive index (Na D-line) (dimensionless); settings: 102.2 kPa, Liquid, Standard Abbe refractometry
[2] = 102.2 kPa, Liquid, Vibrating tube method
[3] = refractive index (Na D-line) (dimensionless); xn = mol fraction of the nth substance listed; settings: 102.2 kPa, Liquid, Standard Abbe refractometry, x2 = 0
[4] = xn = mol fraction of the nth substance listed; settings: 102.2 kPa, Liquid, Vibrating tube method, x2 = 0

| SMILES | refractive index ([1]; 308.15 K) | refractive index ([1]; 313.15 K) | refractive index ([1]; 318.15 K) | refractive index ([1]; 323.15 K) | refractive index ([1]; 328.15 K) | mass density ([2]; 308.15 K) | mass density ([2]; 313.15 K) | mass density ([2]; 318.15 K) | mass density ([2]; 323.15 K) | mass density ([2]; 328.15 K) | refractive index ([3]; 308.15 K) | refractive index ([3]; 313.15 K) | refractive index ([3]; 318.15 K) | refractive index ([3]; 323.15 K) | refractive index ([3]; 328.15 K) | mass density ([4]; 308.15 K) | mass density ([4]; 313.15 K) | mass density ([4]; 318.15 K) | mass density ([4]; 323.15 K) | mass density ([4]; 328.15 K) |
| --- | --- | --- | --- | --- | --- | --- | --- | --- | --- | --- | --- | --- | --- | --- | --- | --- | --- | --- | --- | --- |
| C=C[Si](C)(C)O[Si](C)(C)C=C [1,3-diethenyl-1,1,3,3-tetramethyldisiloxane] | 1.40445 ± 0.00036 | 1.40178 ± 0.00036 | 1.39912 ± 0.00036 | 1.39644 ± 0.00036 | 1.39378 ± 0.00036 | 797.99 ± 0.23 kg/m3 | 793.04 ± 0.23 kg/m3 | 788.05 ± 0.24 kg/m3 | 783.06 ± 0.24 kg/m3 | 778.04 ± 0.24 kg/m3 |  |  |  |  |  |  |  |  |  |  |
| C[Si]1(C)O[Si](C)(C)O[Si](C)(C)O[Si](C)(C)O1 [octamethylcyclotetrasiloxane] + C[Si](C)(O[Si](C)(C)c1ccccc1)c1ccccc1 |  |  |  |  |  |  |  |  |  |  | 1.38924 ± 0.00036 | 1.38671 ± 0.00036 | 1.38419 ± 0.00036 | 1.38168 ± 0.00036 | 1.37916 ± 0.00036 | 938.88 ± 0.22 kg/m3 | 933.06 ± 0.22 kg/m3 | 927.34 ± 0.22 kg/m3 | 921.59 ± 0.22 kg/m3 | 915.8 ± 0.22 kg/m3 |
| C[Si]1(C)O[Si](C)(C)O[Si](C)(C)O[Si](C)(C)O1 [octamethylcyclotetrasiloxane] | 1.38924 ± 0.00036 | 1.38671 ± 0.00036 | 1.38419 ± 0.00036 | 1.38168 ± 0.00036 | 1.37916 ± 0.00036 | 938.88 ± 0.22 kg/m3 | 933.06 ± 0.22 kg/m3 | 927.34 ± 0.22 kg/m3 | 921.59 ± 0.22 kg/m3 | 915.8 ± 0.22 kg/m3 |  |  |  |  |  |  |  |  |  |  |
| C=C[Si]1(C)O[Si](C)(C=C)O[Si](C)(C=C)O[Si](C)(C=C)O1 (stereo not given) [2,4,6,8-tetramethyl-2,4,6,8-tetravinylcycloterasiloxane] + C[Si](C)(O[Si](C)(C)c1ccccc1)c1ccccc1 |  |  |  |  |  |  |  |  |  |  | 1.42751 ± 0.00035 | 1.42514 ± 0.00035 | 1.42275 ± 0.00035 | 1.4204 ± 0.0004 | 1.41802 ± 0.00035 | 972.64 ± 0.21 kg/m3 | 967.49 ± 0.21 kg/m3 | 962.36 ± 0.21 kg/m3 | 957.2 ± 0.21 kg/m3 | 952.03 ± 0.21 kg/m3 |
| C[Si](C)(O[Si](C)(C)c1ccccc1)c1ccccc1 [1,3-diphenyltetramethyldisiloxane] | 1.51064 ± 0.00035 [middle of 4 runs] | 1.50832 ± 0.00035 [middle of 4 runs] | 1.50605 ± 0.00035 [middle of 4 runs] | 1.50377 ± 0.00035 [middle of 4 runs] | 1.50144 ± 0.00035 [middle of 4 runs] | 968.05 ± 0.21 kg/m3 and 967.99 ± 0.21 kg/m3 and 967.9 ± 0.21 kg/m3 | 963.92 ± 0.21 kg/m3 [middle of 4 runs] | 959.8 ± 0.21 kg/m3 [middle of 4 runs] | 955.69 ± 0.21 kg/m3 [middle of 4 runs] | 951.57 ± 0.21 kg/m3 and 951.58 ± 0.21 kg/m3 and 951.65 ± 0.21 kg/m3 |  |  |  |  |  |  |  |  |  |  |
| C[Si]1(CCC(F)(F)F)O[Si](C)(CCC(F)(F)F)O[Si](C)(CCC(F)(F)F)O1 (stereo not given) + C[Si](C)(O[Si](C)(C)c1ccccc1)c1ccccc1 |  |  |  |  |  |  |  |  |  |  | 1.36015 ± 0.00035 | 1.35814 ± 0.00035 | 1.35614 ± 0.00035 | 1.35413 ± 0.00035 | 1.35215 ± 0.00035 | 1236.82 ± 0.23 kg/m3 | 1230.2 ± 0.23 kg/m3 | 1223.61 ± 0.23 kg/m3 | 1217.06 ± 0.23 kg/m3 | 1210.43 ± 0.23 kg/m3 |
| C=C[Si](C)(C)O[Si](C)(C)C=C [1,3-diethenyl-1,1,3,3-tetramethyldisiloxane] + C[Si](C)(O[Si](C)(C)c1ccccc1)c1ccccc1 |  |  |  |  |  |  |  |  |  |  | 1.40445 ± 0.00036 | 1.40178 ± 0.00036 | 1.39912 ± 0.00036 | 1.39644 ± 0.00036 | 1.39378 ± 0.00036 | 797.99 ± 0.23 kg/m3 | 793.04 ± 0.23 kg/m3 | 788.05 ± 0.24 kg/m3 | 783.06 ± 0.24 kg/m3 | 778.04 ± 0.24 kg/m3 |
| C=C[Si]1(C)O[Si](C)(C=C)O[Si](C)(C=C)O[Si](C)(C=C)O1 (stereo not given) [2,4,6,8-tetramethyl-2,4,6,8-tetravinylcycloterasiloxane] | 1.42751 ± 0.00035 | 1.42514 ± 0.00035 | 1.42275 ± 0.00035 | 1.4204 ± 0.0004 | 1.41802 ± 0.00035 | 972.64 ± 0.21 kg/m3 | 967.49 ± 0.21 kg/m3 | 962.36 ± 0.21 kg/m3 | 957.2 ± 0.21 kg/m3 | 952.03 ± 0.21 kg/m3 |  |  |  |  |  |  |  |  |  |  |
| C[Si]1(CCC(F)(F)F)O[Si](C)(CCC(F)(F)F)O[Si](C)(CCC(F)(F)F)O1 (stereo not given) | 1.36015 ± 0.00035 | 1.35814 ± 0.00035 | 1.35614 ± 0.00035 | 1.35413 ± 0.00035 | 1.35215 ± 0.00035 | 1236.82 ± 0.23 kg/m3 | 1230.2 ± 0.23 kg/m3 | 1223.61 ± 0.23 kg/m3 | 1217.06 ± 0.23 kg/m3 | 1210.43 ± 0.23 kg/m3 |  |  |  |  |  |  |  |  |  |  |
